Literature values as cited in US12648920B2, “Methods of administering glutathione precursors” (Neuronasal, Inc., priority 2020, dated 2026).

Settings: oral

In the case of `CC(=O)N[C@@H](CS)C(=O)O` [NAC, N-acetylcysteine], the orally bioavailable is listed as under 10%.
